Laboratory results from US7879861B2, “Combi-molecules having EGFR and DNA targeting properties” (priority 2005, dated 2011).
pIC50: −log10 of the molar value. Where two headings read alike, the source gives them in different places.

How the values were obtained:
[1] = tested on: MDA-MB-468 cells; test: Reversibility of antiproliferative effect, SRB assay; format: cell-based, human
Description: (§1) In vitro growth inhibition assay: To study the effect of the compounds on growth factor stimulated-proliferation, cells were grown to 70% of confluence in 48-well plates. […] Cell growth was measured using the sulforhodamine B (SRB) assay (24). Briefly, following drug treatment, cells were fixed using 50 μl of cold trichloroacetic acid (50%) for 60 min at 4° C., washed five times with tap water, and stained for 30 min at room temperature with SRB (0.4%) and dissolved in acetic acid (0.5%). The plates were rinsed five times with 1% acetic acid and allowed to air dry. The resulting colored residue was dissolved in 200 μl of Tris base (10 mM), and the optical density read for each well at 450 nm using a Bio-Rad microplate reader (model 2550). […] Cell growth was measured using SRB assay as described previously.

[2] = tested on: MDA-MB-453 cells; test: as above; format: cell-based, human
Description: as §1

Q: Which results are given for `ClCCNc1ccc2ncnc(Nc3cccc(Br)c3)c2c1` [ZR2002]?
A: pIC50 ([1]; Homo sapiens, MDA-MB-468, 120 h, read-out: IC50, growth inhibition, 120 h continuous exposure, MDA-MB-468, SRB): 6.44; pIC50 ([1]; Homo sapiens, MDA-MB-468, read-out: IC50, growth inhibition, 2 h exposure followed by 120 h recovery, MDA-MB-468, SRB): 5.13; pIC50 ([1]; read-out: IC50, growth inhibition, 2 h exposure followed by 120 h recovery, MDA-MB-468, SRB): 5.29; pIC50 ([1]; read-out: IC50, growth inhibition, 120 h continuous exposure, MDA-MB-468, SRB): 6.63; pIC50 ([2]; Homo sapiens, MDA-MB-453, 120 h, read-out: IC50, growth inhibition, 120 h continuous exposure, MDA-MB-453, SRB): 6.37; pIC50 ([2]; Homo sapiens, MDA-MB-453, read-out: IC50, growth inhibition, 2 h exposure followed by 120 h recovery, MDA-MB-453, SRB): 5.38; pIC50 ([2]; read-out: IC50, growth inhibition, 2 h exposure followed by 120 h recovery, MDA-MB-453, SRB): 5.38; pIC50 ([2]; read-out: IC50, growth inhibition, 120 h continuous exposure, MDA-MB-453, SRB): 6.37
